Source: paper PMC12298827, “Subchronic Toxicities of Four Per- and Polyfluoroalkyl Substances (PFASs) by Oral Exposure in Sprague–Dawley Rats” (Toxics, 2025)
In brackets after ≈: the same amount, converted by molar mass. Like-named read-outs stand apart in the source and are kept apart here.

How the values were obtained:
[1] = test system: male SD rats; test: Single-dose tolerability study, oral gavage; format: in vivo, rat; settings: single oral dose in corn oil, n = 3/dose
Description: Tolerability, 14-day dose-range-finding, and 90-day subchronic toxicity studies were conducted at Inotiv (Gaithersburg, MD, USA), monitored by the Research Triangle Institute (RTI) (Durham, NC, USA) and sponsored and funded by the EPA. Tolerability studies used four PFAS dose levels plus a control, with the high doses not to exceed 1000 mg/kg (subject to solubility in corn oil, dose volume of 5 or 10 mL/kg) and lower doses separated by threefold spacing. The dose levels for PFHI, MHFPK, and CTFPA were […]. The dose levels for PFNAC were 0, 25, 75, 225, and 667 mg/kg. Tolerability was studied using male rats (n = 3 rats/group) that received a single dose by oral gavage. The rats were euthanized at 48 hours post dosing. The data collected were bodyweight (BW) and BW changes (BWCs), feed consumption (FC) and water consumption (WC), cage-side observations, and physical exams; no necropsies were performed.

[2] = test system: male and female SD rats; test: 14-day dose-range-finding oral gavage study; format: in vivo, rat; settings: both sexes, all doses
Description: (§1) Dose-range-finding (14-day) studies were conducted using male and female rats to establish dose levels for 90-day studies and identify potential target organ toxicities. Male and female rats (n = 5 sex/group, a control and three dose groups, corn oil vehicle dose volume of 5 mL/kg) were administered PFASs by oral gavage daily for 14 days and euthanized on study day (SD) 15. The dose levels for PFHI, CTFPA, and MHFPK were 0, 30, 100, and 300 mg/kg-day. The dose levels for PFNAC were 0, 10, 30, and 100 mg/kg-day. The in vivo data collected included BW, BWCs, FC, cage-side observations, and physical exams. Gross necropsies, relative and absolute organ weights, and clinical chemistry data were collected for all the groups. Macroscopic and microscopic pathology examinations were conducted for the control and high-dose groups initially; the other groups were examined if justified by experimental findings. Plasma samples were analyzed ~2 h post dosing on day 1 and at day 15 for the parent PFAS chemical.
Neurotoxicity was evaluated using the functional observational battery (FOB) and measuring locomotor activity (LMA) 2–4 h post dosing on SDs 78–80 and 80–84, respectively. For both the 14- and 90-day studies, an ophthalmologic examination was conducted prior to randomization and near the end of the study, using indirect ophthalmoscopy and slit–lamp biomicroscopy (as needed) after the administration of a mydriatic solution.
Hematology, biochemistry, and coagulation endpoints were measured at the termination of the study. A Siemens Advia 2120i hematology analyzer (Siemens Healthineers, Erlangen, Germany) was used to measure (or calculate) the parameters related to the complete blood count, leukocyte differential count, and reticulocyte count. The hematology parameters are listed and described in Table 2. The prothrombin time […] and activated partial thromboplastin time (APTT) were measured using an Instrumentation Laboratory (Bedford, MA, USA) ACL Elite Pro coagulation analyzer (laser–nephelometric centrifugal method).
At necropsy, the rats were visually examined for external abnormalities and organ weights (absolute and relative to the BW and brain weight), which were recorded (paired organs weighed together). The tissues were preserved in 10% neutral buffered formalin (NBF), except for the ocular tissues, testes, and epididymides, which were preserved in modified Davidson’s fixative and later transferred to 10% NBF. Bone marrow smears were prepared from the femurs, and the slides were air-dried, fixed in methanol, stained, and stored at room temperature for possible future evaluation. The preserved tissues were embedded in paraffin, sectioned, stained with hematoxylin and eosin, and examined by a board-certified veterinary pathologist.

[3] = Parent chemical in rat plasma, 14-day study; format: in vivo; settings: for concentration at 15 day: Sprague-Dawley, rat, plasma, oral; for Percentage of the dose in the plasma: 14 days
Description: as §1
On SD 1 of the 14-day study (~2 h post dosing), 0.2 mL of blood was collected via tail vein puncture in tubes containing K3EDTA and stored on wet ice. Prior to the scheduled euthanasia, blood (~1 mL) was collected from the jugular vein in tubes containing K3EDTA and stored on wet ice on SD 15, for the 14-day study, and SD 91, for the 90-day study. All the tubes were centrifuged at an ~1500 relative centrifugal force within 1 h of collection for 15 min at 5 ± 3 °C. The plasma was stored at −75 ± 15 °C until the analysis. PFNAC and PFHI were analyzed using a headspace GC–mass spectrometry (MS) method, as summarized in Table S3, and CTFPA was analyzed using an ultra-HPLC-MS method, as summarized in Table S4. The MHFPK samples were not analyzed because a method suitable for plasma was not available. The details concerning the preparation of the samples, method blanks, and matrix and QC standards for the analysis are available in the appendices to the study reports.

[4] = Solubility in dosing vehicles; format: physicochemical
Source text: Based on solubility, corn oil (Welsh, Holme & Clark Inc., Newark, NJ, USA) was used as the vehicle for all four PFASs. Gas chromatography (GC) with flame ionization detection (FID) was used for the analysis of the PFNAC, PFHI, and MHFPK formulations, and a high-performance liquid chromatography (HPLC) method with ultraviolet spectroscopy was used for the CTFPA formulation. The details of the dosing solution analytical conditions are summarized in supplemental Tables S1 and S2. These analytical methods were developed specifically for these subchronic toxicity studies. […] Dosing solutions were prepared and replaced between at least every 29 days and no more than every 39 days.
PFNAC, PFHI, and MHFPK were soluble in corn oil up to 67, 200, and 100 mg/mL, respectively. As solubility in aqueous vehicles was 40 mg/mL or less for all three chemicals, corn oil was chosen as the vehicle. PFNAC was stable at the ambient temperature for 51 days at target concentrations of 0.2 and 10 mg/mL PFHI was stable in corn oil at ambient temperatures and target concentrations of 1 and 80 mg/mL for up to 70 days. MFHPK was stable in corn oil at room temperature for up to 44 days at target concentrations of 5 and 100 mg/mL. CTFPA was soluble in both deionized (DI) water and corn oil at 200 mg/mL when stored refrigerated overnight. […] Thus, corn oil was chosen as the vehicle for CTFPA. The stability of the CTFPA in the corn oil was evaluated for 8, 13, 15, 23, 35, and 42 days stored refrigerated in plastic bottles. CTFPA at 40 mg/mL was stable for up to 42 days. CTFPA at 0.6 mg/mL was stable for up to […] when refrigerated in plastic bottles but by 42 days had decreased to approximately 81%.

[5] = male, Day 1 (2 hours post dosing), 100 mg/kg-day

| SMILES | Summary of observations [1] | Bodyweight and bodyweight gain [2] | Clinical chemistry [2] | Clinical observations [2] | Coagulation endpoints [2] | Feed consumption [2] | Gross lesions [2] | Hematology [2] | Histopathology [2] | Morbidity and mortality [2] | Ophthalmology [2] | Organ weight changes [2] | Parent chemical in plasma ([3]; female, Day 1, 100 mg/kg-day) | Parent chemical in plasma [3, 5] | also measured |
| --- | --- | --- | --- | --- | --- | --- | --- | --- | --- | --- | --- | --- | --- | --- | --- |
| O=C(O)C(F)(Cl)C(F)(F)F (stereo not shown) [CTFPA, 2-Chloro-2,3,3,3-tetrafluoropropanoic acid] | No mortality and no effect on absolute bodyweight gains or water consumption; clinical observations of low activity, decreased bodyweight and decreased feed consumption at high doses | No changes | Females: mild increases in albumin, A/G ratio and mild sporadic decreases in globulin and minimal increases in the total protein; males: minimal increases in calcium and from minimal to mild increases in BUN at all the dose levels. At 300 mg/kg-day, mild increases in ALPi | None | No effects | No effects | None | Mild increases in MPV in males at all the doses, not seen in females | From minimal to moderate diffuse hepatocellular hypertrophy seen in the livers of males at ≥30 mg/kg-day (5/5 in all the groups, with severity increasing with dose) and females at ≥100 mg/kg-day (5/5 with, severity increasing with dose) | None | No ocular lesions | Females: liver at >100 mg/kg-day; males: liver, dose-dependent pattern in all the dose groups | 107,000 ± 30,400 ng/mL | 122,000 ± 43,800 ng/mL | concentration at 15 day ([3]; female, Day 15, 30 mg/kg-day): 27.2 µg/mL; concentration at 15 day ([3]; female, Day 15, 100 mg/kg-day): 45.4 µg/mL; concentration at 15 day ([3]; female, Day 15, 300 mg/kg-day): 123 µg/mL; concentration at 15 day ([3]; male, Day 15, 30 mg/kg-day): 49.8 µg/mL; concentration at 15 day ([3]; male, Day 15, 100 mg/kg-day): 99.1 µg/mL; concentration at 15 day ([3]; male, Day 15, 300 mg/kg-day): 120 µg/mL; Percentage of the dose in the plasma ([3]; female, 100 mg/kg-day): 1.75 ± 0.67%; Parent chemical in plasma ([3]; female, Day 1, 30 mg/kg-day): 46,700 ± 10,000 ng/mL; Parent chemical in plasma ([3]; female, Day 1, 300 mg/kg-day): 297,000 ± 56,500 ng/mL; Percentage of the dose in the plasma ([3]; male, 30 mg/kg-day): 6.39 ± 2.03%; Parent chemical in plasma ([3]; male, Day 1 (2 hours post dosing), 30 mg/kg-day): 48,400 ± 8430 ng/mL; Parent chemical in plasma ([3]; male, Day 1 (2 hours post dosing), 300 mg/kg-day): 321,000 ± 60,600 ng/mL; pH of the DI water solution ([4]; DI water solution): < 1; solubility ([4]; corn oil, stored refrigerated overnight, read-out: Solubility in corn oil): 200 mg/mL (≈ 1110 mM); solubility ([4]; deionized water, stored refrigerated overnight, read-out: Solubility in deionized (DI) water): 200 mg/mL (≈ 1110 mM) |
| C=CC(=O)OCC(F)(F)C(F)(F)C(F)(F)C(F)(F)C(F)(F)C(F)(F)C(F)(F)C(F)F [PFNAC, 1H,1H,9H-Perfluorononyl acrylate] | No mortality and no abnormal clinical observations, some lowering of bodyweight, bodyweight changes, and feed consumption in all the treated groups not reaching statistical significance | No changes | From mild to moderate decreases in mean cholesterol levels in males at all the dose levels and in females at 30 and 100 mg/kg-day, with from mild to moderate increases in triglycerides in both sexes at 100 mg/kg-day and in females at 30 mg/kg-day | None | No effects | No effects | None | No effects considered as chemical related | From minimal to moderate liver hypertrophy in males only in 2/5, 3/5, and 4/4 at doses of 10, 30, and 100 mg/kg-day, respectively | None | No ocular lesions | Dose-proportional increases in absolute and relative liver weights in all exposed males and females | Parent chemical not detected at the highest dose | Parent chemical not detected at the highest dose | Parent chemical in plasma ([3]; female, Day 15, 100 mg/kg-day): Parent chemical not detected at the highest dose; Parent chemical in plasma ([3]; male, Day 15, 100 mg/kg-day): Parent chemical not detected at the highest dose; solubility ([4]; corn oil, oil or lipid, read-out: Solubility in corn oil): ≤ 67 mg/mL |
